These results are taken from BindingDB's records for doi:10.7270/Q2FF3QRT (University of Pittsburgh, 2006).

One may read the IC50 as the concentration at which inhibition is half-maximal. High values mean weaker potency in that assay, low ones greater potency in that assay.

The test addresses T1, M-phase inducer phosphatase 2 (Homo sapiens, UniProt P30305).
T1 sequence (P30305 whole entry): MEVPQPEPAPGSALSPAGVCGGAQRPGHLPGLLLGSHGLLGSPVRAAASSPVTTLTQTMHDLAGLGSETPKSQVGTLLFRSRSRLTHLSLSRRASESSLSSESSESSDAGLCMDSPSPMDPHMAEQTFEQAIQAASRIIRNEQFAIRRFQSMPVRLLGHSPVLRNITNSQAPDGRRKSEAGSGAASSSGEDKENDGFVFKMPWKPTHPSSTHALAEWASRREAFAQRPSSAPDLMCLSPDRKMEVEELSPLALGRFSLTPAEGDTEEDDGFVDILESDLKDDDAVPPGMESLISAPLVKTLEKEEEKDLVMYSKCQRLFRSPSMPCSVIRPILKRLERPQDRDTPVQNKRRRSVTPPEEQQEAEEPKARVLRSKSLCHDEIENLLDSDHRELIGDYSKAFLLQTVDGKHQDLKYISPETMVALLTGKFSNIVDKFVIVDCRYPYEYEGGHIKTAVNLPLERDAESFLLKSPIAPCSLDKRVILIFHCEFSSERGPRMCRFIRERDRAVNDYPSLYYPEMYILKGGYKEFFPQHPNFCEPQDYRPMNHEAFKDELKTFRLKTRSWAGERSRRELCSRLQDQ
The test is described as follows: Cdc25B phosphatase inhibitors, confirmation, selectivity assay, biochemical, catalytic domain, dose response (AID 443).

`CCCCC[C@H](O)C=C[C@H]1C=CC(=O)[C@@H]1C/C=C\CCCC(=O)O` [(Z)-7-[(1R,5S)-2-oxidanylidene-5-[(E,3S)-3-oxidanyloct-1-enyl]cyclopent-3-en-1-yl]hept-5-enoic acid]: 43.1 µM corresponded to half-maximal inhibition (IC50).

For `Cc1ccc2c(c1C)NC(C(=O)O)C1CC=CC21` (stereo not given), half-maximal inhibition (IC50) required 10.6 µM.

`CCn1nc(-c2ccccc2)nc2c(=O)n(C)c(=O)nc1-2` [1-Ethyl-6-methyl-3-phenyl-1H-pyrimido[5,4-e][1,2,4]triazine-5,7-dione] registered an IC50 of 0.223 µM.

Consider `COc1ccc(Cn2c(C)nc3c(c2=O)c2nc4ccccc4nc2n3Cc2ccco2)cc1` [MLS000079944], for which the 50% inhibitory concentration (IC50) amounted to 31.5 µM.

Molecule `CC(C)Cn1c(N)c(C(=O)COC(=O)c2cc(-c3ccco3)nc3ccccc23)c(=O)n(C)c1=O` [2-(2-furanyl)-4-quinolinecarboxylic acid [2-[4-amino-1-methyl-3-(2-methylpropyl)-2,6-dioxo-5-pyrimidinyl]-2-oxoethyl] ester] returned an IC50 of 13.1 µM.
